What follows are compounds tested on Vcap cells (assay: Dihydrotestosterone (DHT) mediated XTT cell proliferation assay for screening AR antagonists using Vcap cells). Conditions: Homo sapiens, 240 h, in the presence of 0.2 nM DHT, XTT readout on Day 10, IC50 curves from 8 concentrations.
Assay type: cell-based
Protocol: Dihydrotestosterone (DHT) Mediated XTT Cell Proliferation Assay for Screening AR Antagonists Using Vcap cells
The Vcap cells (4×10^6 cells) were seeded in a T-75 flask containing DMEM with 15% FBS. After 72 hours, the media was removed; the cells were washed once and replaced with phenol red free DMEM containing 8% charcoal stripped serum. Then, the cells were starved in phenol red free DMEM with 8% charcoal stripped serum for 5 days. Following the starvation, the cells were harvested and seeded in 96 well plates (10×10^3 cells per well) in phenol red free DMEM with 8% charcoal stripped serum (Day 0). The cells were allowed to settle and on Day 4 they were treated with different concentrations of the compound (30 μM, 10 μM, 1 μM, 500 nM, 100 nM, 10 nM, 1 nM, 0.1 nM) in the presence of 0.2 nM DHT. DHT alone and a DMSO controls were also included. All treatments were done in triplicate. The drugs were replenished on Day 7 and the cells were allowed to grow for another 72 hours. On Day 10, the experiment was terminated by adding the XTT reagent (2,3-bis[2-methoxy-4-notro-5-sulfophenyl]-2H-tetrazolium-5-caboxyanilide inner salt) dissolved in Phenol red free DMEM without serum. The cells with the XTT reagents were incubated inside the CO2 incubator for 3-4 hours for color development; after which the readings were taken at […] using a spectramax Gemini plate reader.
Data fitting: The IC50 curves for the 8 compound concentrations were calculated with GraphPad Prism software using the sigmoidal dose-response function. (Graphpad Software, San Diego, Calif., USA).

`CNC(=O)c1ccc(N2C(=O)N(c3ccc(C#N)c(C(F)(F)F)c3)[C@@H]3CCC(=O)C[C@H]32)cc1F` (racemic) [Example 81, Trans-4-(3-(4-cyano-3-(trifluoromethyl)phenyl)-2,6-dioxooctahydro-1H-benzo[d]imidazol-1-yl)-2-fluoro-N-methylbenzamide (±)] and `CNC(=O)c1ccc(N2C(=O)N(c3ccc(C#N)c(C(F)(F)F)c3)[C@@H]3CCC(O)C[C@H]32)cc1F` (mixture of isomers) [Example 82, Trans-4-(3-(4-cyano-3-(trifluoromethyl)phenyl)-6-hydroxy-2-oxooctahydro-1H-benzo[d]imidazol-1-yl)-2-fluoro-N-methylbenzamide (±)] are within 1.5-fold of each other in IC50: 702 nM for the first, 583 nM for the second.

`CNC(=O)c1ccc(N2C(=O)N(c3ccc(C#N)c(C(F)(F)F)c3)[C@@H]3CC=CC[C@H]32)cc1F` (racemic) [Example 83, Trans-4-(3-(4-cyano-3-(trifluoromethyl)phenyl)-2-oxo-2,3,3a,4,7,7a-hexahydro-1H-benzo[c]imidazol-1-yl)-2-fluoro-N-methylbenzamide (±)] and `CNC(=O)c1ccc(N2C(=O)N(c3ccc(C#N)c(C(F)(F)F)c3)[C@@H]3CCC=C[C@H]32)cc1F` (racemic) [Example 84, trans-4-(3-(4-cyano-3-(trifluoromethyl)phenyl)-2-oxo-2,3,3a,4,5,7a-hexahydro-1H-benzo[d]imidazol-1-yl)-2-fluoro-N-methylbenzamide (±)] are within 1.5-fold of each other in IC50: 148 nM for the first, 161 nM for the second.

First: CNC(=O)c1ccc(N2C(=O)N(c3ccc(C#N)c(C(F)(F)F)c3)[C@@H]3CC(OC)CC[C@H]32)cc1F (mixture of isomers) [Example 85, Trans-4-(3-(4-cyano-3-(trifluoromethyl)phenyl)-5-methoxy-2-oxooctahydro-1H-benzo[d]imidazol-1-yl)-2-fluoro-N-methylbenzamide (±)]
Second: CNC(=O)c1ccc(N2C(=O)N(c3ccc(C#N)c(C(F)(F)F)c3)[C@H]3C=CCC[C@@H]32)cc1F (racemic) [Example 86, trans-4-(3-(4-cyano-3-(trifluoromethyl)phenyl)-2-oxo-2,3,3a,6,7,7a-hexahydro-1H-benzo[c]imidazol-1-yl)-2-fluoro-N-methylbenzamide (±)]
The IC50 of the first is 61-fold higher: 2620 nM for the first, 43 nM for the second. The second is the more potent here.

Compared with `CNC(=O)c1ccc(C2=C[C@@H]3[C@@H](CC2)N(c2ccc(C#N)c(C(F)(F)F)c2)C(=O)N3C)cc1F` (racemic) [Example 88, Trans-4-(1-(4-cyano-3-(trifluoromethyl)phenyl)-3-methyl-2-oxo-2,3,3a,6,7,7a-hexahydro-1H-benzo[d]imidazol-5-yl)-2-fluoro-N-methylbenzamide (±)], `CNC(=O)c1ccc(C2=C[C@H]3[C@@H](CC2)N(c2ccc(C#N)c(C(F)(F)F)c2)C(=O)N3C)cc1F` (racemic) [Example 89, Cis-4-(1-(4-cyano-3-(trifluoromethyl)phenyl)-3-methyl-2-oxo-2,3,3a,6,7,7a-hexahydro-1H-benzo[d]imidazol-5-yl)-2-fluoro-N-methylbenzamide (±)] is 4.6-fold higher in IC50: 218 nM for the first, 1000 nM for the second. The first is the more potent here.

Compared with `CN1C(=O)N(c2ccc(C#N)c(C(F)(F)F)c2)[C@@H]2CCC(c3ccccc3)=C[C@H]21` (racemic) [Example 91, Trans-4-3-methyl-2-oxo-5-phenyl-2,3,3a,6,7,7a-hexahydro-1H-benzo[d]imidazol-1-yl)-2-(trifluoromethyl)benzonitrile (±)], `COCCONC(=O)c1ccc(N2C(=O)N(c3ccc(C#N)c(C(F)(F)F)c3)[C@H]3CCCC[C@@H]32)cc1F` [Example 29, 4-((3aS,7aS)-3-(4-Cyano-3-(trifluoromethyl)phenyl)-2-oxooctahydro-1H-benzo[d]imidazol-1-yl)-2-fluoro-N-(2-methoxyethoxy)benzamide] is 1.8-fold lower in IC50: 323 nM for the first, 176 nM for the second. The second is the more potent here.

Same assay, conditions: in the presence of 0.2 nM DHT, XTT readout on Day 10, IC50 curves from 8 concentrations

Compared with `CNC(=O)c1ccc(N2C(=O)N(c3ccc(C#N)c(C(F)(F)F)c3)[C@@H]3CCCC[C@H]32)cc1F` (relative stereo) [Example 1a, Trans-4-{3-[4-cyano-3-(trifluoromethyl)phenyl]-2-oxo-octahydro-1H-1,3-benzodiazol-1-yl}-2-fluoro-N-Methylbenzamide (+)], `CNC(=O)c1ccc(N2C(=O)N(c3ccc(C#N)c(C(F)(F)F)c3)[C@@H]3CCCCC[C@H]32)cc1F` (relative stereo) [Example 80a, Trans-4-(3-(4-cyano-3-(trifluoromethyl)phenyl)-2-oxooctahydrocyclohepta[d]imidazol-1(2H)-yl)-2-fluoro-N-methylbenzamide (−)] is lower in IC50: greater than 10000 nM for the first, 93.7 nM for the second. The second is the more potent here.

Compared with `CNC(=O)c1ccc(N2C(=O)N(c3ccc(C#N)c(C(F)(F)F)c3)[C@@H]3CCCC[C@H]32)cc1F` (relative stereo) [Example 1b, Trans-4-{3-[4-cyano-3-(trifluoromethyl)phenyl]-2-oxo-octahydro-1H-1,3-benzodiazol-1-yl}-2-fluoro-N-Methylbenzamide (−)], `CNC(=O)c1ccc(N2C(=O)N(c3ccc(C#N)c(C(F)(F)F)c3)[C@@H]3CCCCC[C@H]32)cc1F` (relative stereo) [Example 80b, Trans-4-(3-(4-cyano-3-(trifluoromethyl)phenyl)-2-oxooctahydrocyclohepta[d]imidazol-1(2H)-yl)-2-fluoro-N-methylbenzamide (+)] is 24-fold higher in IC50: 90.5 nM for the first, 2180 nM for the second.

Going from `N#Cc1ccc(N2C(=O)N(c3ccc(C#N)c(C(F)(F)F)c3)[C@@H]3CCCC[C@H]32)cc1C(F)(F)F` (relative stereo) [Example 2a, Trans-4,4′-(2-oxohexahydro-1H-benzo[d]imidazole-1,3(2H)-diyl)bis(2-(trifluoromethyl)benzonitrile) (−)] to `N#Cc1ccc(N2C(=O)N(c3ccnc(F)c3)[C@@H]3CCCC[C@H]32)cc1C(F)(F)F` (relative stereo) [Example 10a, Trans-4-(3-(2-fluoropyridin-4-yl)-2-oxooctahydro-1H-benzo[d]imidazol-1-yl)-2-(trifluoromethyl)benzonitrile (+)], the IC50 rises from 231 nM to 2550 nM (11-fold).

First: N#Cc1ccc(N2C(=O)N(c3ccc(C#N)c(C(F)(F)F)c3)[C@@H]3CCCC[C@H]32)cc1C(F)(F)F (relative stereo) [Example 2b, Trans-4,4′-(2-oxohexahydro-1H-benzo[d]imidazole-1,3(2H)-diyl)bis(2-(trifluoromethyl)benzonitrile) (+)]
Second: N#Cc1ccc(N2C(=O)N(c3ccnc(F)c3)[C@@H]3CCCC[C@H]32)cc1C(F)(F)F (relative stereo) [Example 10b, Trans-4-(3-(2-fluoropyridin-4-yl)-2-oxooctahydro-1H-benzo[d]imidazol-1-yl)-2-(trifluoromethyl)benzonitrile (−)]
The IC50 of the first is higher: greater than 10000 nM for the first, 280 nM for the second. The second is the more potent here.

Compared with `N#Cc1ccc(N2C(=O)N(c3ccccc3)[C@@H]3CCCC[C@H]32)cc1C(F)(F)F` (relative stereo) [Example 5a, Trans-4-(2-oxo-3-phenyloctahydro-1H-benzo[d]imidazol-1-yl)-2-(trifluoromethyl)benzonitrile (+)], `CNC(=O)c1ccc(N2C(=O)N(c3ccc(C#N)c(C(F)(F)F)c3)C3CCC(O)CC32)cc1F` (single isomer, unassigned) [Example 82a, Trans-4-(3-(4-cyano-3-(trifluoromethyl)phenyl)-6-hydroxy-2-oxooctahydro-1H-benzo[d]imidazol-1-yl)-2-fluoro-N-methylbenzamide (+)] is higher in IC50: 1760 nM for the first, greater than 10000 nM for the second.

First: N#Cc1ccc(N2C(=O)N(c3ccccc3)[C@@H]3CCCC[C@H]32)cc1C(F)(F)F (relative stereo) [Example 5b, Trans-4-(2-oxo-3-phenyloctahydro-1H-benzo[d]imidazol-1-yl)-2-(trifluoromethyl)benzonitrile (−)]
Second: CNC(=O)c1ccc(N2C(=O)N(c3ccc(C#N)c(C(F)(F)F)c3)C3CCC(O)CC32)cc1F (single isomer, unassigned) [Example 82b, Trans-4-(3-(4-cyano-3-(trifluoromethyl)phenyl)-6-hydroxy-2-oxooctahydro-1H-benzo[d]imidazol-1-yl)-2-fluoro-N-methylbenzamide (−)]
The IC50 of the first is 3.4-fold higher: 1050 nM for the first, 312 nM for the second.

`CNC(=O)c1ccc(N2C(=O)N(c3ccc(C#N)c(C(F)(F)F)c3)[C@@H]3COCC[C@H]32)cc1F` (relative stereo) [Example 71a, Trans-4-{3-[4-Cyano-3-(trifluoromethyl)phenyl]-2-oxo-octahydropyrano[3,4-d]imidazolidin-1-yl}-2-fluoro-N-methylbenzamide (+)] and `CNC(=O)c1ccc(N2C(=O)N(c3ccc(C#N)c(C(F)(F)F)c3)[C@@H]3CC=CC[C@H]32)cc1F` (relative stereo) [Example 83a] cannot be ordered by IC50: greater than 10000 nM for the first, greater than 10000 nM for the second.

Compared with `CNC(=O)c1ccc(N2C(=O)N(c3ccc(C#N)c(C(F)(F)F)c3)[C@@H]3COCC[C@H]32)cc1F` (relative stereo) [Example 71b, Trans-4-{3-[4-Cyano-3-(trifluoromethyl)phenyl]-2-oxo-octahydropyrano[3,4-d]imidazolidin-1-yl}-2-fluoro-N-methylbenzamide (−)], `CNC(=O)c1ccc(N2C(=O)N(c3ccc(C#N)c(C(F)(F)F)c3)[C@@H]3CC=CC[C@H]32)cc1F` (relative stereo) [Example 83b] is 12-fold lower in IC50: 379 nM for the first, 31.9 nM for the second. The second is the more potent here.
